The values that follow come from patent US12472179B2, “Combination of a CBP/p300 bromodomain inhibitor and a KRAS inhibitor for the treatment of cancer” (TOLREMO THERAPEUTICS AG, priority 2020, dated 2025).

Entries after “also recorded” stand apart in the source; their conditions may differ.

What all share (type): cell-based
Test [1] concerns NCI-H358 cells. In words: Label-free determination of cell proliferation, NCI-H358 cell number, AMG510 (Example 9). The method, then:
2000 NCI-H358 cells [KCLB; 25807; a non-small cell lung cancer (NSCLC) cell line with KRAS G12C mutation] were seeded into 96 well plates (Greiner BioOne 655090) one day prior to drug treatment in RPMI medium containing 10% FCS and 2 mM L-Glutamine. The next day, the wells were imaged label-free using brightfield imaging on a CELIGO ImageCytometer to determine the initial cell number. […] The cells were regularly imaged over weeks using brightfield mode (CELIGO Imaging Cytometer) to track cell proliferation in each well over time. Growth medium and treatments were replenished twice weekly. […] Cell numbers were determined using CELIGO software's built-in “direct cell counting” analysis tool in the brightfield mode.

The subject of test [2] is SNU-1411 cells. Put plainly: Label-free determination of cell proliferation, SNU-1411 confluency, AMG510 (Example 6). Conditions: for cell proliferation (SNU-1411 confluency), drug alone: SNU-1411 (KRAS G12C), 32 days, single drug: 1 μM Compound A, 0.2 μM Compound C, 0.2 μM CCS1477, 1 μM FT-6876, 0.2 μM GNE-781, 300 nM AMG510; for development of drug resistance / re-growth, combined with AMG510: CBP/p300 bromodomain inhibitor combined with 300 nM AMG510. The method, then: (§1) 2000 SNU-1411 cells [KCLB; 01411, a CRC (rectal adenocarcinoma) cell line carrying a KRAS G12C mutation], were seeded into 96 well plates (Greiner BioOne 655090) one day prior to drug treatment in RPMI medium containing 10% FCS and 2 mM L-Glutamine. The next day, the wells were imaged label-free using brightfield imaging on a CELIGO Image Cytometer to determine the initial cell confluency. […] Plates were regularly imaged over weeks using brightfield mode (CELIGO Imaging Cytometer) to track cell confluency in each well over time. Growth medium and treatments were replenished twice weekly. […] Confluency was determined using CELIGO software's built-in “confluence” analysis tool in the brightfield mode.

In test [3] the test system is SW837 cells. Put plainly: Label-free determination of cell proliferation, SW837 confluency, AMG510 (Example 8). As to conditions: for cell proliferation (SW837 confluency), drug alone: SW837 (KRAS G12C), 49 days, single drug: 1 μM Compound A, 0.2 μM Compound C, 0.2 μM CCS1477, 1 μM FT-6876, 0.2 μM GNE-781, 100 nM AMG510; for development of drug resistance / re-growth, combined with AMG510: CBP/p300 bromodomain inhibitor combined with 100 nM AMG510. The method, then:
2000 SW837 cells [ATCC; CCL-235, a CRC (rectal adenocarcinoma) cell line carrying a KRAS G12C mutation], were seeded into 96 well plates (Greiner BioOne 655090) one day prior to drug treatment in RPMI medium containing 10% FCS and 2 mM L-Glutamine. The next day, the wells were imaged label-free using brightfield imaging on a CELIGO Image Cytometer to determine the initial cell confluency. […] Plates were regularly imaged over weeks using brightfield mode (CELIGO Imaging Cytometer) to track cell confluency in each well over time. Growth medium and treatments were replenished twice weekly. […] Confluency was determined using CELIGO software's built-in “confluence” analysis tool in the brightfield mode.

Test [4] has as its system SNU-1411 cells. Put plainly: Label-free determination of cell proliferation, SNU-1411 confluency, MRTX849 (Example 7). Conditions: for cell proliferation (SNU-1411 confluency), drug alone: SNU-1411 (KRAS G12C), 32 days, single drug: 1 μM Compound A, 0.2 μM Compound C, 0.2 μM CCS1477, 1 μM FT-6876, 0.2 μM GNE-781, 300 nM MRTX849; for development of drug resistance / re-growth, combined with MRTX849: SNU-1411, 32 days, CBP/p300 bromodomain inhibitor combined with 300 nM MRTX849. The method, then: as §1

For `C=CC(=O)N1CCN(c2nc(=O)n(-c3c(C)ccnc3C(C)C)c3nc(-c4c(O)cccc4F)c(F)cc23)[C@@H](C)C1` [AMG510], the “cell proliferation (NCI-H358 cell number), drug alone” value in test [1] (NCI-H358 (KRAS G12C), >20 days, single drug: 1 μM Compound A, 200 nM Compound C, 100 nM AMG510) is “initially completely blocked cell proliferation”. The “re-growth in long-term culture, AMG510 alone” value was “re-grew” in test [1] (NCI-H358, >20 days, 100 nM AMG510 alone); “re-grew” in test [2] (SNU-1411, 32 days, 300 nM AMG510 alone); “re-grew” in test [3] (SW837, 49 days, 100 nM AMG510 alone). Moreover, the “cell proliferation (SNU-1411 confluency), drug alone” value in test [2] is “delayed cell proliferation initially for few days”. Also, the “cell proliferation (SW837 confluency), drug alone” value in test [3] was “initially prevented cell proliferation”.
Turning to `CO[C@H]1CC[C@H](n2c([C@@H]3CCCC(=O)N3c3ccc(F)c(F)c3)nc3cc(-c4c(C)noc4C)ccc32)CC1` [CCS1477], the “cell proliferation (SNU-1411 confluency), drug alone” value in test [4] and in test [2] was “do not affect cell proliferation” throughout. Besides, the “development of drug resistance / re-growth, combined with MRTX849” value in test [4] is reported as “prevent the development of drug resistance”. Also, the “development of drug resistance / re-growth, combined with AMG510” value in test [2] (SNU-1411, 32 days) is recorded as “prevent the development of drug resistance”; in test [3] (SW837, 49 days), “prevent the development of drug resistance”. Also, the “cell proliferation (SW837 confluency), drug alone” value in test [3] is “do not affect cell proliferation”.
On to `CC(=O)N1C[C@H](c2nc(Nc3cccc(-c4cn(C)nn4)c3)cc(-c3cnccn3)n2)CC[C@@H]1C` [Compound C, 1-((2S,5R)-2-methyl-5-(4-((3-(1-methyl-1H-1,2,3-triazol-4-yl)phenyl)amino)-6-(pyrazin-2-yl)pyrimidin-2-yl)piperidin-1-yl)ethan-1-one], for which the “development of drug resistance / re-growth, combined with AMG510” value in test [1] (NCI-H358, >20 days, 1 μM Compound A or 200 nM Compound C combined with 100 nM AMG510) is reported as “prevent the development of drug resistance; also recorded: completely prevented re-growth”; in test [2] (SNU-1411, 32 days), “prevent the development of drug resistance”; in test [3] (SW837, 49 days) it was “prevent the development of drug resistance”. The “development of drug resistance / re-growth, combined with MRTX849” value in test [4] was “prevent the development of drug resistance”.
Regarding `COC(=O)N1c2ccc3c(nc(Cc4ccccc4)n3[C@H]3CCC[C@H](C(=O)O)C3)c2CC[C@@H]1C` [FT-6876], the “cell proliferation (SNU-1411 confluency), drug alone” value in test [4] and in test [2] was “do not affect cell proliferation” each time. In addition, the “development of drug resistance / re-growth, combined with MRTX849” value in test [4] was “prevent the development of drug resistance”. Further, the “development of drug resistance / re-growth, combined with AMG510” value is “prevent the development of drug resistance” in test [2] (SNU-1411, 32 days) and “prevent the development of drug resistance” in test [3] (SW837, 49 days). Moreover, the “cell proliferation (SW837 confluency), drug alone” value in test [3] is on record as “do not affect cell proliferation”.
In the case of `CNC(=O)N1CCc2c(c(N3CCCc4cc(-c5cnn(C)c5)c(C(F)F)cc43)nn2C2CCOCC2)C1` [GNE-781], the “cell proliferation (SNU-1411 confluency), drug alone” value in test [4] and in test [2] was “do not affect cell proliferation” in each case. Also, the “development of drug resistance / re-growth, combined with MRTX849” value in test [4] is “prevent the development of drug resistance”. Moreover, the “development of drug resistance / re-growth, combined with AMG510” value is “prevent the development of drug resistance” in test [2] (SNU-1411, 32 days) and “prevent the development of drug resistance” in test [3] (SW837, 49 days). Moreover, in test [3], the “cell proliferation (SW837 confluency), drug alone” value is recorded as “do not affect cell proliferation”.
